What is called IC50 is the midpoint of a concentration-inhibition curve.

Like-named read-outs stand apart in the source and are kept apart here.

This note sets out measurements from EP2486923B1, “Histone deacetylase (HDAC) inhibiting compounds and method of making same” (Dr. Felix Jäger und Dr. Stefan Drinkuth Laborgemeinschaft …, priority 2011, dated 2012).

Holding throughout (experiment): Two-step fluorescence assay for determination of IC50
Holding throughout (format): biochemical

For experiment [1], the target named is T1, HDAC7 (Homo sapiens, UniProt Q8WUI4).
T1 sequence (Q8WUI4 1-952): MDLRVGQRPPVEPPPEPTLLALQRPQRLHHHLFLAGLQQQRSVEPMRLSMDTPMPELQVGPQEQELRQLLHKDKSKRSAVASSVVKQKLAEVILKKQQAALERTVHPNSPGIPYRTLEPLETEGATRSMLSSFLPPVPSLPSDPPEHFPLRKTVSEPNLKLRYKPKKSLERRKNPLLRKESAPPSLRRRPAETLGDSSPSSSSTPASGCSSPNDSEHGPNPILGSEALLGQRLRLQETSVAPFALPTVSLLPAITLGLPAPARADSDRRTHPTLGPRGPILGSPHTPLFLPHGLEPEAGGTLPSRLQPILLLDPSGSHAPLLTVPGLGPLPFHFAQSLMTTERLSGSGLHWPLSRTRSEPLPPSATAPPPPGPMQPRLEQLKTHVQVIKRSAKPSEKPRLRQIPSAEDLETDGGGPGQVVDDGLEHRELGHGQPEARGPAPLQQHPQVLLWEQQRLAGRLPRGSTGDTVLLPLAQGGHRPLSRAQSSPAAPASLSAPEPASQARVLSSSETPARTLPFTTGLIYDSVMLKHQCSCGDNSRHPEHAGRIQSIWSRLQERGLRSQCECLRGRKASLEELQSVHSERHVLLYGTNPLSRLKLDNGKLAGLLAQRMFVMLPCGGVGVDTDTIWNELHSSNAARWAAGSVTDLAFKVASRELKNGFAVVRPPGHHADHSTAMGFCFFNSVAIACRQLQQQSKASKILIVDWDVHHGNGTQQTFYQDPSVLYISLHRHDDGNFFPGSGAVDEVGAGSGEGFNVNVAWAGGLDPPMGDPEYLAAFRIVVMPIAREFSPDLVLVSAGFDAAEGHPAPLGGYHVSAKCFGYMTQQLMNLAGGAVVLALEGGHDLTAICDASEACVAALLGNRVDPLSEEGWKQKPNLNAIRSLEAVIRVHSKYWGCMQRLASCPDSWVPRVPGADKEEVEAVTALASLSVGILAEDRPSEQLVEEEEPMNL
Here is the method:
(§1) In order to evaluate the inhibitory characteristics of example compounds of the invention, IC50 values were determined for such compounds. […] A two-step assay was used for this purpose.
(§2) To obtain the IC50 value for an individual compound/HDAC pair, a two-step assay can be performed based on a fluorescence signal. In principle, an ε-acetylated lysine substrate is deacetylated by histone-deacetylases in the first step. Trypsin releases detectable 7-amino-4-methylcoumarin (ex = excitation wavelength: 390 nm, em = emission wavelength: 460 nm) by cleaving the substrate at the deacetylated lysine in a subsequent reaction^[9]. The enzyme activity is inhibited by a suitable HDACi.
(§3) The obtained data are interpreted using a four parameter fit. Based on this fit, the IC50 value can be estimated. Analysis ot the data and calculation of the IC50 values was accomplished using a four-parameter logistic model protocol as previously described by Vølund^[16]. For nonlinear fits the Levenberg-Marquardt algorithm was applied^[17],[18]. […] Table 1: IC50 values in µM for synthesized compounds of the invention with a perfluorinated linker. […] HDAH = HDAC-like amidohydrolase

Experiment [2] deals with T2, HDAH (Alcaligenes sp., UniProt Q70I53).
T2 sequence (Q70I53 1-369): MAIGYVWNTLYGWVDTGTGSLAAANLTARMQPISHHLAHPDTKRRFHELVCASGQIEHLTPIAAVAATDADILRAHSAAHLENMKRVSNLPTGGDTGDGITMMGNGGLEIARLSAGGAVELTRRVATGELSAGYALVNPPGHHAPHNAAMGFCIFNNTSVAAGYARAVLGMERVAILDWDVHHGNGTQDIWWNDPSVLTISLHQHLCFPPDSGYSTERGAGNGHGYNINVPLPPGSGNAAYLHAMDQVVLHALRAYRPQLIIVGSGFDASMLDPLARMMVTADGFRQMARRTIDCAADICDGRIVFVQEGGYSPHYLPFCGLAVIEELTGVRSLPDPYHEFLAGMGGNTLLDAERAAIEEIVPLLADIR
Here is the method:
as §1, §2, §3

Experiment [3] concerns the target T3, HDAC6 (Homo sapiens, UniProt Q9UBN7).
T3 sequence (Q9UBN7 1-1215): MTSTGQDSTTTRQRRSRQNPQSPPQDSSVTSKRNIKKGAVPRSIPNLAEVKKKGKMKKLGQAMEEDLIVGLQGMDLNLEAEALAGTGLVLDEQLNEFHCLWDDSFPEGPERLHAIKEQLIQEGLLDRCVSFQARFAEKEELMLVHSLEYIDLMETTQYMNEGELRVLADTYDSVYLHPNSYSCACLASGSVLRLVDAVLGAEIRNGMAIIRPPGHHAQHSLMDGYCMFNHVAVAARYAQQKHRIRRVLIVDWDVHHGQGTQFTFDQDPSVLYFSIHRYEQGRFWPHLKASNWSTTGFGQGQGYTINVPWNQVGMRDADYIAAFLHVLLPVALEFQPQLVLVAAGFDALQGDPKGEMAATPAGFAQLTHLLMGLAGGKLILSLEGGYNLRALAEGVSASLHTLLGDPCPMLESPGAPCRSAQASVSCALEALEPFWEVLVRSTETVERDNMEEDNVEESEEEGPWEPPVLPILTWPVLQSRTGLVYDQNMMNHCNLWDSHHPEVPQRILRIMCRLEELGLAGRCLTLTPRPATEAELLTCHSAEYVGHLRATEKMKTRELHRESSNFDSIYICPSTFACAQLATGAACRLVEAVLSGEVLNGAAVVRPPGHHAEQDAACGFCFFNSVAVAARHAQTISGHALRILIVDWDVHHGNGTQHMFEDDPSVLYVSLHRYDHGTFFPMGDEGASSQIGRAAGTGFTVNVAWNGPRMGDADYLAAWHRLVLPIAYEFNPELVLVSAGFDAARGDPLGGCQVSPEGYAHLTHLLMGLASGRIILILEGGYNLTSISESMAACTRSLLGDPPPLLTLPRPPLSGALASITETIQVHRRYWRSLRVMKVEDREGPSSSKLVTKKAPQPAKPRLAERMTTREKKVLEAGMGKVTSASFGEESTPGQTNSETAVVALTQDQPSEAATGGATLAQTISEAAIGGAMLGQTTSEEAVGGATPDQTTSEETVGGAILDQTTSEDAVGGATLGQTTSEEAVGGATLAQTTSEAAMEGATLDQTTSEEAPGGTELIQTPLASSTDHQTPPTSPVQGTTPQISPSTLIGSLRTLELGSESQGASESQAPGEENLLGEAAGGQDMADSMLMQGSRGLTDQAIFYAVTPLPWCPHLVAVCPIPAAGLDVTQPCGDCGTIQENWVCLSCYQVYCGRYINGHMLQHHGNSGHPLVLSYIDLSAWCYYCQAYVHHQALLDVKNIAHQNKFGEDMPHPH
Here is the method: as §1, §2, §3

For experiment [4], the target named is HDAC1 (Homo sapiens, UniProt Q13547). How it is done:
as §1, §2, §3

In experiment [5] the target is T4, HDAC8 (Homo sapiens, UniProt Q9BY41).
T4 sequence (Q9BY41 1-377): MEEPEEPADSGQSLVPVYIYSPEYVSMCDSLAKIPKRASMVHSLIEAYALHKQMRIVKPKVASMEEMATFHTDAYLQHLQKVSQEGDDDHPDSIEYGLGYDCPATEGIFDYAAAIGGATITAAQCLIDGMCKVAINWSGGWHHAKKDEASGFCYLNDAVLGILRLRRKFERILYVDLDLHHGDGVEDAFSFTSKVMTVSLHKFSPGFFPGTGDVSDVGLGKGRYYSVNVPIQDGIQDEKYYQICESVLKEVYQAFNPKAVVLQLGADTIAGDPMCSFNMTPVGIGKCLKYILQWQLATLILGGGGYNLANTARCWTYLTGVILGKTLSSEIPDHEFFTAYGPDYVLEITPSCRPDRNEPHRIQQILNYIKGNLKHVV
How it is done:
as §1, §2, §3

The mark [6] stands for this setting: HDAC-like amidohydrolase, ε-acetylated lysine substrate, trypsin release of 7-amino-4-methylcoumarin, four parameter fit, read-out: IC50 values HDAH.
Where [7] appears, read: ε-acetylated lysine substrate, trypsin release of 7-amino-4-methylcoumarin, four parameter fit, read-out: IC50 values HDAC6.
Setting [8] is: ε-acetylated lysine substrate, trypsin release of 7-amino-4-methylcoumarin, four parameter fit, read-out: IC50 values HDAC1.
[9] abbreviates: ε-acetylated lysine substrate, trypsin release of 7-amino-4-methylcoumarin, four parameter fit, read-out: IC50 values HDAC7.
[10] abbreviates: ε-acetylated lysine substrate, trypsin release of 7-amino-4-methylcoumarin, four parameter fit, read-out: IC50 values HDAC8.

HDAC1, sequence (Q13547 whole entry): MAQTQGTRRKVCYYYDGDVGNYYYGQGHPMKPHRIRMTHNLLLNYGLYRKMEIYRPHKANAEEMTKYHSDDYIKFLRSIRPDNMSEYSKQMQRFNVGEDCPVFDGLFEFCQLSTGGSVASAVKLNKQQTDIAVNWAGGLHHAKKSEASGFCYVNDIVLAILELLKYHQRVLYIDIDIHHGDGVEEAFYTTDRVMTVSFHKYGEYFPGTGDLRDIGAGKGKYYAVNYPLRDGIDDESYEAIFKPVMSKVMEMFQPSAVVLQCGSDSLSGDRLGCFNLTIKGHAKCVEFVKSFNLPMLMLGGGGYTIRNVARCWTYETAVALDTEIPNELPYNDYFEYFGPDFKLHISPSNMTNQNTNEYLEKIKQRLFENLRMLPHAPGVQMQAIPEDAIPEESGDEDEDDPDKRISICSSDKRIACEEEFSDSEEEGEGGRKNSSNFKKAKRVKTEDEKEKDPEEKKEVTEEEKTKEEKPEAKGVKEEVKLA

Take `O=C(NO)C(F)(F)C(F)(F)C(F)(F)C(F)(F)C(F)(F)C(F)(F)C(=O)Nc1ccccc1` [LU210, 2,2,3,3,4,4,5,5,6,6,7,7-Dodecafluorooctanedioic acid hydroxyamide phenyl-amide]: the IC50 in experiment [1] turned out to be 14.8 µM; in experiment [2] (setting [6]), 1.67 µM; in experiment [3] (setting [7]), 12.5 µM; in experiment [4], 17.9 µM.

Consider `Cc1ccc(NC(=O)C(F)(F)C(F)(F)C(F)(F)C(F)(F)C(F)(F)C(F)(F)C(=O)NO)cc1` [LU222, 2,2,3,3,4,4,5,5,6,6,7,7-Dodecafluorooctanedioic acid hydroxyamide 4-methyl-phenylamide], for which the 50% inhibitory concentration (IC50) in experiment [1] is 84.8 µM; in experiment [2] (setting [6]) it was 0.86 µM; in experiment [3] (setting [7]) it was over 100 µM; in experiment [5], 87.6 µM; in experiment [4] (setting [8]), 16.3 µM.

For the compound `O=C(NO)C(F)(F)C(F)(F)C(F)(F)C(F)(F)C(F)(F)C(F)(F)C(=O)Nc1ccc(Cl)cc1` [LU223, 2,2,3,3,4,4,5,5,6,6,7,7-Dodecafluorooctanedioic acid (4-chlorophenyl)amide hydroxyamide], the IC50 stood at 26.8 µM in experiment [1] (setting [9]); 0.72 µM in experiment [2]; 26.3 µM in experiment [3]; 73 µM in experiment [5] (setting [10]); 15.1 µM in experiment [4] (setting [8]).

In the case of `CC(=O)Nc1ccc(NC(=O)C(F)(F)C(F)(F)C(F)(F)C(F)(F)C(F)(F)C(F)(F)C(=O)NO)cc1` [LU224, 2,2,3,3,4,4,5,5,6,6,7,7-Dodecafluorooctanedioic acid (4-acetylaminophenyl)-amide hydroxyamide], the IC50 in experiment [1] (setting [9]) is 21.5 µM; in experiment [2] (setting [6]), 3.41 µM; in experiment [3] (setting [7]) it was 10.5 µM; in experiment [5] (setting [10]), 76.2 µM; in experiment [4] (setting [8]), 21.8 µM.

As for `N#Cc1ccc(NC(=O)C(F)(F)C(F)(F)C(F)(F)C(F)(F)C(F)(F)C(F)(F)C(=O)NO)cc1` [LU225 A, 2,2,3,3,4,4,5,5,6,6,7,7-Dodecafluorooctanedioic acid (4-cyanophenyl)amide hydroxyamide], the half-maximal inhibitory concentration (IC50) is 53.7 µM in experiment [1] (setting [9]); 0.7 µM in experiment [2]; over 100 µM in experiment [3] (setting [7]); 73.9 µM in experiment [5] (setting [10]); 21.8 µM in experiment [4] (setting [8]).

As to `O=C(NO)C(F)(F)C(F)(F)C(F)(F)C(F)(F)C(F)(F)C(F)(F)C(=O)Nc1ccc(I)cc1` [LU227, 2,2,3,3,4,4,5,5,6,6,7,7-Dodecafluorooctanedioic acid hydroxyamide (4-iodo-phenyl)amide], the IC50 was 6.86 µM in experiment [1] (setting [9]); 0.91 µM in experiment [2] (setting [6]); 5.13 µM in experiment [3] (setting [7]); 75.8 µM in experiment [5] (setting [10]); 16.9 µM in experiment [4] (setting [8]).

As to `Cc1ccc(NC(=O)C(F)(F)C(F)(F)C(F)(F)C(F)(F)C(F)(F)C(F)(F)C(=O)NO)cc1C` [LU228, 2,2,3,3,4,4,5,5,6,6,7,7-Dodecafluorooctanedioic acid (3,4-dimethylphenyl)-amide hydroxyamide], the IC50 was 5.51 µM in experiment [1]; 0.66 µM in experiment [2] (setting [6]); 7.8 µM in experiment [3] (setting [7]); 22.8 µM in experiment [5] (setting [10]); 10 µM in experiment [4].

Regarding `O=C(NO)C(F)(F)C(F)(F)C(F)(F)C(F)(F)C(F)(F)C(F)(F)C(=O)Nc1ccc(-c2ccccc2)cc1` [LU229, 2,2,3,3,4,4,5,5,6,6,7,7-Dodecafluorooctanedioic acid biphenyl-4-ylamide hydroxyamide], the IC50 in experiment [1] was 22 µM; in experiment [2] (setting [6]), 0.78 µM; in experiment [3] (setting [7]), 59.1 µM; in experiment [5] (setting [10]), over 100 µM; in experiment [4] (setting [8]), 37.9 µM.

Consider `CCc1cccc(NC(=O)C(F)(F)C(F)(F)C(F)(F)C(F)(F)C(F)(F)C(F)(F)C(=O)NO)c1` [LU232, 2,2,3,3,4,4,5,5,6,6,7,7-Dodecafluorooctanedioic acid (3-ethylphenyl)amide hydroxyamide], for which the half-inhibitory concentration (IC50) in experiment [1] (setting [9]) came to 4.97 µM; in experiment [2] (setting [6]) it was 9.18 µM; in experiment [3], 1.55 µM; in experiment [5] (setting [10]) it was 21.3 µM; in experiment [4], 19.9 µM.

For the compound `O=C(NO)C(F)(F)C(F)(F)C(F)(F)C(F)(F)C(F)(F)C(F)(F)C(=O)Nc1ccc2ccc3cccc4ccc1c2c34` [LU234, 2,2,3,3,4,4,5,5,6,6,7,7-Dodecafluorooctanedioic acid hydroxyamide pyren-1-ylamide], the IC50 was over 100 µM in experiment [1] (setting [9]); 1.48 µM in experiment [2] (setting [6]); 20.2 µM in experiment [3] (setting [7]); 77.8 µM in experiment [5]; 28.3 µM in experiment [4] (setting [8]).
